The results in this text go back to US7632829B2, “Diazepan derivatives” (Hoffmann-La Roche Inc., priority 2006, dated 2009).

This assay has as its target T1, human chemokine receptor 2 isoform B (Homo sapiens, UniProt P41597).
T1 construct: host or cells: CHOK1-CCR2B-A5 (CHO-K1)
T1 sequence (P41597 1-360 isoform P41597-2): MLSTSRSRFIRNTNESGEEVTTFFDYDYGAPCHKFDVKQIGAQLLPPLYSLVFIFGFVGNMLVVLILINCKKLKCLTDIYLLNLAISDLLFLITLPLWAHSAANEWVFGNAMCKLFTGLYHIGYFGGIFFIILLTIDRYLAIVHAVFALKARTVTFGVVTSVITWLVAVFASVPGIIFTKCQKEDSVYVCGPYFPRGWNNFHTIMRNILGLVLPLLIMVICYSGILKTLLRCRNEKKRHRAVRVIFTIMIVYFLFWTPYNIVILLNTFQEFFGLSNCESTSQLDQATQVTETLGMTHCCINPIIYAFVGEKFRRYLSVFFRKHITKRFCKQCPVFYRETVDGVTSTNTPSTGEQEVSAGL
Kind of assay: Calcium mobilization assay (FLIPR, CHOK1-CCR2B-A5 cells, 20 nM MCP-1). In kind it is cell-based. The conditions noted are these: Ca mobilisation assay, CCR2, antagonist activity vs 20 nM MCP-1. Put shortly:
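FLIPR Fluo-4 calcium readout in CHO-K1 cells stably overexpressing human CCR2B; compounds first monitored 80 s for agonist activity, then after 20-30 min at 30 °C challenged with 20 nM MCP-1. Response is max minus basal fluorescence; antagonist value is concentration giving 50% inhibition of specific calcium increase.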
With `CNC(=O)C1CCN(CCCN2CCN(C(=O)/C=C/c3ccc(Cl)c(Cl)c3)CCC2=O)CC1` [Example 86, 1-(3-{4-[(E)-3-(3,4-Dichloro-phenyl)-acryloyl]-7-oxo-[1,4]diazepan-1-yl}-propyl)-piperidine-4-carboxylic acid methylamide], the IC50 (usually the point on the concentration scale where inhibition reaches its midpoint) is 1080 nM.

As for `CC1(C)CN(CCCN2CCN(C(=O)/C=C/c3ccc(Cl)c(Cl)c3)CCC2=O)CCC1O` (racemic) [Example 257], the half-inhibitory concentration (IC50) came to 182 nM.

For the molecule `C[C@@H]1C[C@H](O)CN(C[C@H](O)CN2CCN(C(=O)/C=C/c3ccc(Cl)c(Cl)c3)CCC2=O)C1` (mixture of isomers) [Example 335, 1-[(E)-3-(3,4-Dichloro-phenyl)-acryloyl]-4-[(S)-2-hydroxy-3-(cis-3-hydroxy-5-methyl-piperidin-1-yl)-propyl]-[1,4]diazepan-5-one], the IC50 is 13 nM.

`O=C(/C=C/c1ccc(Cl)c(Cl)c1)N1CCC(=O)N(CCCCN2CCC(CO)CC2)CC1` [Example 422]: the IC50 came to 70 nM.

Turning to `C[C@@H]1[C@H](O)CCCN1CCCN1CCN(C(=O)/C=C/c2ccc(Cl)c(Cl)c2)CCC1=O` (racemic) [Example 226, (rac,cis)-1-[(E)-3-(3,4-Dichloro-phenyl)-acryloyl]-4-[3-(3-hydroxy-2-methyl-piperidin-1-yl)-propyl]-[1,4]diazepan-5-one], the 50% inhibitory concentration (IC50) amounted to 464 nM.

As for `O=C(/C=C/c1ccc(Cl)c(Cl)c1)N1CCC(=O)N(CCCN2CCN(C3CCCC3)CC2)CC1` [Example 242], the 50% inhibitory concentration (IC50) stood at 124 nM.

For the molecule `O=C(/C=C/c1ccc(Cl)c(Cl)c1)N1CCC(=O)N(CCCNC2CC3CCC2C3)CC1` (racemic) [Example 38, (+/−)-4-[3-(Bicyclo[2.2.1]hept-2-ylamino)-propyl]-1-[(E)-3-(3,4-dichloro-phenyl)-acryloyl]-[1,4] diazepan-5-one], the IC50 was 121 nM.

`N#CC1(c2ccccc2)CCN(CCCN2CCN(C(=O)/C=C/c3ccc(Cl)c(Cl)c3)CCC2=O)CC1` [Example 60, 1-(-3-{4-[(E)-3-(3,4-Dichloro-phenyl)-acryloyl]-7-oxo-[1,4]diazepan-1-yl}-propyl)-4-phenyl-piperidine-4-carbonitrile]: the half-inhibitory concentration (IC50) came out at 23 nM.

For “(rac)-1-[(E)-3-(3,4-Dichloro-phenyl)-acryloyl]-4-[2-hydroxy-3-(2-hydroxy-2-hydroxymethyl-piperidin-1-yl)-propyl]-[1,4]diazepan-5-one [Example 307]”, the IC50 stood at 437 nM.

As for `O=C(C=Cc1ccc(Cl)c(Cl)c1)N1CCC(=O)N(CCCN2CCC(CO)C(O)C2)CC1` (mixture of isomers) [Example 266, (rac,cis)-1-[(E)-3-(3,4-Dichloro-phenyl)-acryloyl]-4-[3-(3-hydroxy-4-hydroxymethyl-piperidin-1-yl)-propyl]-[1,4]diazepan-5-one], the half-inhibitory concentration (IC50) came out at 77 nM.

In the case of `O=C(/C=C/c1ccc(Cl)c(Cl)c1)N1CCC(=O)N(CCCCN2CCCC(O)C2)CC1` (racemic) [Example 161, 1-[(E)-3-(3,4-Dichloro-phenyl)-acryloyl]-4-[4-(3-hydroxy-piperidin-1-yl)-butyl]-[1,4]diazepan-5-one], the IC50 turned out to be 47 nM.

With `O=C(/C=C/c1ccc(Cl)c(Cl)c1)N1CCC(=O)N(CC(O)CN2CCN(C3CCCC3)CC2)CC1` (racemic) [Example 298], the half-maximal inhibitory concentration (IC50) was found to be 281 nM.

With `C[C@]1(CO)CCN(CCCN2CCN(C(=O)/C=C/c3ccc(F)c(Cl)c3)CCC2=O)C[C@H]1O` (racemic) [Example 219], the concentration for half-maximal inhibition (IC50) amounted to 45 nM.

As to `O=C(/C=C/c1ccc(Cl)c(Cl)c1)N1CCC(=O)N(CC(O)CN2CCCCC2)CC1` (racemic) [Example 166, (rac)-1-[(E)-3-(3,4-Dichloro-phenyl)-acryloyl]-4-(2-hydroxy-3-piperidin-1-yl-propyl)-[1,4]diazepan-5-one], the concentration for half-maximal inhibition (IC50) came out at 212 nM.

Consider `CC1CCN(CCCCN2CCN(C(=O)/C=C/c3ccc(Cl)c(Cl)c3)CCC2=O)CC1O` (racemic) [Example 448], for which the half-inhibitory concentration (IC50) is 181 nM.

For `CC1(CO)CCN(CC(O)CN2CCN(C(=O)C=Cc3ccc(Cl)c(Cl)c3)CCC2=O)CC1O` (single isomer, unassigned) [Example 331], the IC50 was found to be 59 nM.

Turning to `O=C(/C=C/c1ccc(F)c(F)c1)N1CCC(=O)N(CCCN2CCC3(CC3)C(O)C2)CC1` (stereo not drawn) [Example 495], the IC50 worked out at 19 nM.

`COC1CCN(CCCN2CCN(C(=O)/C=C/c3ccc(Cl)c(Cl)c3)CCC2=O)CC1` [Example 79, 1-[(E)-3-(3,4-Dichloro-phenyl)-acryloyl]-4-[3-(4-methoxy-piperidin-1-yl)-propyl]-[1,4]diazepan-5-one]: the IC50 turned out to be 706 nM.

In the case of `O=C(/C=C/c1ccc(F)c(Cl)c1)N1CCC(=O)N(CCCN2CCCC(CO)C2)CC1` (racemic) [Example 211], the IC50 is 363 nM.

Turning to `COCCN1CCN(CCCCN2CCN(C(=O)/C=C/c3ccc(F)c(Cl)c3)CCC2=O)CC1` [Example 399], the IC50 is 720 nM.

Take `O=C(/C=C/c1ccc(Cl)c(Cl)c1)N1CCC(=O)N(CCC(O)CN2CCCCC2CO)CC1` (racemic) [Example 374]: the IC50 is 580 nM.

As to `O=C(/C=C/c1ccc(Cl)c(Cl)c1)N1CCC(=O)N(CCCN2CCC(O)(c3ccccn3)CC2)CC1` [Example 69, 1-[(E)-3-(3,4-Dichloro-phenyl)-acryloyl]-4-[3-(4′-hydroxy-3′,4′,5′,6′-tetrahydro-2′H-[2,4′]bipyridinyl-1′-yl)-propyl]-[1,4]diazepan-5-one], the IC50 came out at 185 nM.

With “(rac)-N-[1-(4-{4-[(E)-3-(3,4-Dichloro-phenyl)-acryloyl]-7-oxo-[1,4]diazepan-1-yl}-butyl)-piperidin-3-yl]-acetamide [Example 463]”, the IC50 came to 348 nM.

On to `O=C(/C=C/c1cccc(Cl)c1)N1CCC(=O)N(CCCN2CCC3(CC3)C(O)C2)CC1` (stereo not drawn) [Example 496, 1-[(E)-3-(3-Chloro-phenyl)-acryloyl]-4-[3-((-)-4-hydroxy-6-aza-spiro[2.5]oct-6-yl)-propyl]-[1,4]diazepan-5-one], for which the IC50 came out at 7 nM.

Take `O=C(/C=C/c1ccc(Cl)c(F)c1)N1CCC(=O)N(CCCCN2CCC3(CC3)C(O)C2)CC1` (stereo not drawn) [Example 415]: the IC50 was determined as 27 nM.

With `O=C(C=Cc1ccc(Cl)c(Cl)c1)N1CCC(=O)N(CCCNC2CCC(O)(c3ccccn3)CC2)CC1` (stereo not drawn) [Example 65, trans-1-[(E)-3-(3,4-Dichloro-phenyl)-acryloyl]-4-[3-(4-hydroxy-4-pyridin-2-yl-cyclohexylamino)-propyl]-[1,4]diazepan-5-one], the IC50 is 197 nM.

Turning to “4-(3-{4-[(E)-3-(3,4-Dichloro-phenyl)-acryloyl]-7-oxo-[1,4]diazepan-1-yl}-propylamino)-cyclohexanecarboxylic acid ethyl ester [Example 67]”, the IC50 came to 241 nM.

For `O=C(C=Cc1ccc(Cl)c(Cl)c1)N1CCC(=O)N(CCCCN2CCC(F)C(O)C2)CC1` (mixture of isomers) [Example 429, (rac,trans)-1-[(E)-3-(3,4-Dichloro-phenyl)-acryloyl]-4-[4-(4-fluoro-3-hydroxy-piperidin-1-yl)-butyl]-[1,4]diazepan-5-one], the half-inhibitory concentration (IC50) amounted to 86 nM.

`COC(=O)NC1CCN(CC(O)CCN2CCN(C(=O)/C=C/c3ccc(Cl)c(Cl)c3)CCC2=O)CC1` (racemic) [Example 364]: the IC50 worked out at 531 nM.

As to `O=C(/C=C/c1ccc(Cl)c(Cl)c1)N1CCC(=O)N(CCCCN2CC[C@H](CO)[C@H](O)C2)CC1` (racemic) [Example 468], the IC50 is 347 nM.
